From US20070293399A1, “SUBSTITUTED DIAMINO-1,3,5-TRIAZINES, PROCESSES FOR THEIR PREPARATION AND THEIR USE AS HERBICIDES AND CROP GROWTH REGULATORS” (Bayer CropScience AG, priority 2006, published 2007)

Tests used:
[1] = tested on: Stellaria media, Lolium multiflorum, Amaranthus retroflexus, Sinapis alba, Avena sativa and Setaria viridis; assay: Pre-emergence herbicidal action (greenhouse pot test); assay type: in vivo; settings: application rate of 1 kg or less of active substance per hectare; scored visually after 3 to 4 weeks in comparison to untreated controls
Description: Seeds or rhizome pieces of mono- and dicotyledonous weed plants were placed in sandy loam in plastic pots and covered with soil. The inventive compounds, which have been formulated in the form of wettable powders or emulsion concentrates, were then applied to the surface of the covering soil as an aqueous suspension or emulsion in different dosages with an application rate of from 600 to 800 l/ha of water (converted).

[2] = tested on: Sinapis alba, Echinochloa crus-galli, Lolium multiflorum, Stellaria media, Cyperus iria, Amaranthus retroflexus, Setaria viridis, Avena sativa, Lamium …; assay: Post-emergence herbicidal action (greenhouse pot test); assay type: in vivo; settings: application rate of 1 kg and less of active substance per hectare; treated at three-leaf stage; scored visually after approx. 3 to 4 weeks in comparison to untreated controls
Description: Seeds or rhizome pieces of mono- and dicotyledonous weeds were placed in sandy loam in plastic pots, covered with soil and grown in a greenhouse under good growth conditions. Three weeks after the sowing, the test plants were treated at the three-leaf stage. The inventive compounds formulated as spray powders or as emulsion concentrates were sprayed onto the green plant parts in various dosages with an application rate of from 600 to 800 l/ha of water (converted). After the test plants had been left to stand in the greenhouse under optimal growth conditions for approx. 3 to 4 weeks, the action of the preparations was scored visually in comparison to untreated controls. The inventive compositions also had good post-emergence herbicidal activity against a wide spectrum of economically important gramineous and broadleaf weeds.

Structure (SMILES): CC(=Nc1nc(N[C@H]2c3cc(C)ccc3C[C@H]2C)nc(C(F)F)n1)N(C)C [Compound 2.177]
- herbicidal action against harmful plants in the pre-emergence method [1]: very good herbicidal action
- herbicidal action against harmful plants in the post-emergence method [2]: very good herbicidal action

Structure (SMILES): Cc1ccc2c(c1)[C@H](Nc1nc(N=CN(C)C)nc(C(F)F)n1)[C@H](C)C2 [Compound 2.176]
- herbicidal action against harmful plants in the pre-emergence method [1]: very good herbicidal action
- herbicidal action against harmful plants in the post-emergence method [2]: very good herbicidal action

Structure (SMILES): CC1Cc2ccc(F)cc2C1Nc1nc(CF)nc(NC(=O)C(F)(F)F)n1 (racemic) [Compound 1.13]
- herbicidal action against harmful plants in the pre-emergence method [1]: very good herbicidal action
- herbicidal action against harmful plants in the post-emergence method [2]: very good herbicidal action

Structure (SMILES): CCNC(=S)Nc1nc(N[C@H]2c3cc(C)ccc3C[C@@H]2C)nc([C@@H](C)F)n1 [Compound 2.133]
- herbicidal action against harmful plants in the pre-emergence method [1]: very good herbicidal action
- herbicidal action against harmful plants in the post-emergence method [2]: very good herbicidal action

Structure (SMILES): C[C@@H](F)c1nc(NC(=O)C(F)(F)F)nc(N[C@@H]2CCCc3ccccc32)n1 [Compound 2.32]
- herbicidal action against harmful plants in the pre-emergence method [1]: very good herbicidal action
- herbicidal action against harmful plants in the post-emergence method [2]: very good herbicidal action

Structure (SMILES): COc1ccc(NC(=S)Nc2nc(NC3c4cc(C)ccc4CC3C)nc(C(C)F)n2)cc1 (stereo not drawn) [Compound 2.130]
- herbicidal action against harmful plants in the pre-emergence method [1]: very good herbicidal action
- herbicidal action against harmful plants in the post-emergence method [2]: very good herbicidal action

Structure (SMILES): CC(=O)Nc1nc(N[C@H]2c3cc(C)ccc3C[C@@H]2C)nc(C(F)F)n1 [Compound 2.149]
- herbicidal action against harmful plants in the pre-emergence method [1]: very good herbicidal action
- herbicidal action against harmful plants in the post-emergence method [2]: very good herbicidal action

Structure (SMILES): CC(=O)Nc1nc(NC2CCOc3c(C)cc(F)cc32)nc(C(C)Cc2ccc(F)cc2)n1 (racemic) [Compound 1.33]
- herbicidal action against harmful plants in the pre-emergence method [1]: very good herbicidal action
- herbicidal action against harmful plants in the post-emergence method [2]: very good herbicidal action

Structure (SMILES): CCCCCCNC(=O)Nc1nc(NC2c3cc(C)ccc3CC2C)nc(C(C)F)n1 (stereo not drawn) [Compound 2.88]
- herbicidal action against harmful plants in the pre-emergence method [1]: very good herbicidal action
- herbicidal action against harmful plants in the post-emergence method [2]: very good herbicidal action

Structure (SMILES): Cc1ccc2c(c1)C(Nc1ncnc(NC(=O)C3CC3)n1)C(C)C2 (stereo not drawn) [Compound 2.75]
- herbicidal action against harmful plants in the pre-emergence method [1]: very good herbicidal action
- herbicidal action against harmful plants in the post-emergence method [2]: very good herbicidal action

Structure (SMILES): COCCNC(=O)Nc1nc(NC2c3cc(C)ccc3CC2C)nc(C(C)F)n1 (stereo not drawn) [Compound 2.104]
- herbicidal action against harmful plants in the pre-emergence method [1]: very good herbicidal action
- herbicidal action against harmful plants in the post-emergence method [2]: very good herbicidal action

Structure (SMILES): COCc1nc(NC(C)=O)nc(NC2CCCc3c(C)cc(C)cc32)n1 (racemic) [Compound 1.39]
- herbicidal action against harmful plants in the pre-emergence method [1]: very good herbicidal action
- herbicidal action against harmful plants in the post-emergence method [2]: very good herbicidal action

Structure (SMILES): COC(C)(C)CNC(=S)Nc1nc(NC2c3cc(C)ccc3CC2C)nc(C(C)F)n1 (stereo not drawn) [Compound 2.114]
- herbicidal action against harmful plants in the pre-emergence method [1]: very good herbicidal action
- herbicidal action against harmful plants in the post-emergence method [2]: very good herbicidal action

Structure (SMILES): Cc1ccc(NC(=O)Nc2nc(NC3c4cc(C)ccc4CC3C)nc(C(C)F)n2)cc1 (stereo not drawn) [Compound 2.116]
- herbicidal action against harmful plants in the pre-emergence method [1]: very good herbicidal action
- herbicidal action against harmful plants in the post-emergence method [2]: very good herbicidal action

Structure (SMILES): Cc1ccc(NC(=O)Nc2nc(N[C@@H]3CCCc4ccccc43)nc([C@@H](C)F)n2)cc1 [Compound 2.59]
- herbicidal action against harmful plants in the pre-emergence method [1]: very good herbicidal action
- herbicidal action against harmful plants in the post-emergence method [2]: very good herbicidal action
